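Step 1: Grow cells in 96-well plates. Step 2: Expose to compound for 48 hours at 5 concentrations. Step 3: Interpolate endpoints linearly; if unreached, use highest concentration. At the GI50, growth is halved. TGI: concentration producing complete growth inhibition.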
Experiments:
Experiment in all cases: DTP human tumour cell line panel, 48 h; in the data active = GI50 below about 0.43 µM; inactive = the rest
786-0 renal = system: 786-0 renal
A498 renal = system: A498 renal
A549 NSCLC = system: A549 NSCLC
ACHN renal = system: ACHN renal
BT-549 breast = system: BT-549 breast
CAKI-1 renal = system: CAKI-1 renal
CCRF-CEM leukemia = system: CCRF-CEM leukemia
COLO 205 colon = system: COLO 205 colon
DU-145 prostate = system: DU-145 prostate
EKVX NSCLC = system: EKVX NSCLC
HCC-2998 colon = system: HCC-2998 colon
HCT-116 colon = system: HCT-116 colon
HCT-15 colon = system: HCT-15 colon
HL-60(TB) leukemia = system: HL-60(TB) leukemia
HOP-62 NSCLC = system: HOP-62 NSCLC
HOP-92 NSCLC = system: HOP-92 NSCLC
HS 578T breast = system: HS 578T breast
HT29 colon = system: HT29 colon
IGROV1 ovarian = system: IGROV1 ovarian
K-562 leukemia = system: K-562 leukemia
KM12 colon = system: KM12 colon
M14 melanoma = system: M14 melanoma
MALME-3M melanoma = system: MALME-3M melanoma
MCF7 breast = system: MCF7 breast
MDA-MB-231 breast = system: MDA-MB-231 breast
MDA-MB-435 = system: MDA-MB-435
MOLT-4 leukemia = system: MOLT-4 leukemia
NCI-H226 lung = system: NCI-H226 lung
NCI-H460 lung = system: NCI-H460 lung
NCI-H522 lung = system: NCI-H522 lung
NCI/ADR-RES ovarian = system: NCI/ADR-RES ovarian
OVCAR-3 ovarian = system: OVCAR-3 ovarian
OVCAR-4 ovarian = system: OVCAR-4 ovarian
OVCAR-5 ovarian = system: OVCAR-5 ovarian
OVCAR-8 ovarian = system: OVCAR-8 ovarian
PC-3 prostate = system: PC-3 prostate
RPMI-8226 leukemia = system: RPMI-8226 leukemia
RXF 393 renal = system: RXF 393 renal
SF-268 CNS = system: SF-268 CNS
SF-295 CNS = system: SF-295 CNS
SF-539 CNS = system: SF-539 CNS
SK-MEL-2 melanoma = system: SK-MEL-2 melanoma
SK-MEL-28 melanoma = system: SK-MEL-28 melanoma
SK-MEL-5 melanoma = system: SK-MEL-5 melanoma
SK-OV-3 ovarian = system: SK-OV-3 ovarian
SN12C renal = system: SN12C renal
SNB-19 CNS = system: SNB-19 CNS
SNB-75 CNS = system: SNB-75 CNS
SR leukemia = system: SR leukemia
SW-620 colon = system: SW-620 colon
T-47D breast = system: T-47D breast
TK-10 renal = system: TK-10 renal
U251 CNS = system: U251 CNS
UACC-257 melanoma = system: UACC-257 melanoma
UACC-62 melanoma = system: UACC-62 melanoma
UO-31 renal = system: UO-31 renal

Fc1ccc(-c2nc(C(Cl)Cl)nc3cc(-c4ccccc4)nn23)cc1
33.8 µM: TGI (A549 NSCLC)
21.9 µM: TGI (COLO 205 colon)
6.55 µM: TGI (DU-145 prostate)
18.5 µM: TGI (RXF 393 renal)
> 100 µM: TGI (786-0 renal) | TGI (A498 renal) | TGI (ACHN renal) | TGI (BT-549 breast) | TGI (CAKI-1 renal) | TGI (CCRF-CEM leukemia) | TGI (EKVX NSCLC) | TGI (HCT-116 colon) | TGI (HCT-15 colon) | TGI (HL-60(TB) leukemia) | TGI (HOP-62 NSCLC) | TGI (HOP-92 NSCLC) | TGI (HS 578T breast) | TGI (HT29 colon) | TGI (IGROV1 ovarian) | TGI (K-562 leukemia) | TGI (KM12 colon) | TGI (M14 melanoma) | TGI (MALME-3M melanoma) | TGI (MCF7 breast) | TGI (MDA-MB-231 breast) | TGI (MDA-MB-435) | TGI (MOLT-4 leukemia) | TGI (NCI-H226 lung) | TGI (NCI-H460 lung) | TGI (NCI-H522 lung) | TGI (NCI/ADR-RES ovarian) | TGI (OVCAR-3 ovarian) | TGI (OVCAR-4 ovarian) | TGI (OVCAR-5 ovarian) | TGI (OVCAR-8 ovarian) | TGI (PC-3 prostate) | TGI (RPMI-8226 leukemia) | TGI (SF-268 CNS) | TGI (SF-295 CNS) | TGI (SF-539 CNS) | TGI (SK-MEL-2 melanoma) | TGI (SK-MEL-28 melanoma) | TGI (SK-MEL-5 melanoma) | TGI (SK-OV-3 ovarian) | TGI (SN12C renal) | TGI (SNB-19 CNS) | TGI (SNB-75 CNS) | TGI (SR leukemia) | TGI (SW-620 colon) | TGI (T-47D breast) | TGI (TK-10 renal) | TGI (U251 CNS) | TGI (UACC-257 melanoma) | TGI (UACC-62 melanoma) | TGI (UO-31 renal)
6.21 µM: TGI (HCC-2998 colon)
inactive: GI50 (786-0 renal) > 100 µM | GI50 (A498 renal) > 100 µM | GI50 (A549 NSCLC) 3.72 µM | GI50 (ACHN renal) 3.58 µM | GI50 (BT-549 breast) > 100 µM | GI50 (CAKI-1 renal) 16 µM | GI50 (CCRF-CEM leukemia) > 100 µM | GI50 (COLO 205 colon) 3.67 µM | GI50 (DU-145 prostate) 2.46 µM | GI50 (EKVX NSCLC) 7.79 µM | GI50 (HCC-2998 colon) 2.27 µM | GI50 (HCT-116 colon) 38.5 µM | GI50 (HCT-15 colon) 4.64 µM | GI50 (HL-60(TB) leukemia) 3.79 µM | GI50 (HOP-62 NSCLC) 12.1 µM | GI50 (HOP-92 NSCLC) > 100 µM | GI50 (HS 578T breast) > 100 µM | GI50 (HT29 colon) 3.92 µM | GI50 (IGROV1 ovarian) > 100 µM | GI50 (K-562 leukemia) 15.9 µM | GI50 (KM12 colon) 15.9 µM | GI50 (M14 melanoma) > 100 µM | GI50 (MALME-3M melanoma) > 100 µM | GI50 (MCF7 breast) 7.36 µM | GI50 (MDA-MB-231 breast) 35.4 µM | GI50 (MDA-MB-435) > 100 µM | GI50 (MOLT-4 leukemia) 7.81 µM | GI50 (NCI-H226 lung) > 100 µM | GI50 (NCI-H460 lung) 3.63 µM | GI50 (NCI-H522 lung) 7.36 µM | GI50 (NCI/ADR-RES ovarian) 6.48 µM | GI50 (OVCAR-3 ovarian) 6.13 µM | GI50 (OVCAR-4 ovarian) 7.21 µM | GI50 (OVCAR-5 ovarian) 22.3 µM | GI50 (OVCAR-8 ovarian) 7.33 µM | GI50 (PC-3 prostate) > 100 µM | GI50 (RPMI-8226 leukemia) > 100 µM | GI50 (RXF 393 renal) 3.79 µM | GI50 (SF-268 CNS) > 100 µM | GI50 (SF-295 CNS) 28.2 µM | GI50 (SF-539 CNS) > 100 µM | GI50 (SK-MEL-2 melanoma) > 100 µM | GI50 (SK-MEL-28 melanoma) > 100 µM | GI50 (SK-MEL-5 melanoma) > 100 µM | GI50 (SK-OV-3 ovarian) 10.7 µM | GI50 (SN12C renal) > 100 µM | GI50 (SNB-19 CNS) 10.5 µM | GI50 (SNB-75 CNS) > 100 µM | GI50 (SR leukemia) 5.23 µM | GI50 (SW-620 colon) 5.05 µM | GI50 (T-47D breast) > 100 µM | GI50 (TK-10 renal) > 100 µM | GI50 (U251 CNS) 5.79 µM | GI50 (UACC-257 melanoma) > 100 µM | GI50 (UACC-62 melanoma) > 100 µM | GI50 (UO-31 renal) > 100 µM
